Values joined by “and” are separate entries in the source; they are usually repeats but may differ in a detail not shown here. Equal values may be shown once. Read-outs that look alike come from different tables or passages of the source.
Columns and labels:
[1] = target: T1, EGFR L858R (LR) kinase domain (Homo sapiens, UniProt P00533, L858R); test: HTRF KinEASE-TK kinase activity assay; type: biochemical
T1 construct: The EGFR kinase domain (residues 696–1022) was cloned into pTriEx; 6xHis (N, cleaved yes); GST (N, cleaved yes); made in house; host or cells: SF9 insect cells, baculovirus

[2] = target: T2, ABL1(F317L)-nonphosphorylated (Homo sapiens, UniProt P00519, F317L); test: KINOMEscan; type: binding; details: 1 μM
T2 construct: purchased Eurofins DiscoverX Corporation

AXL = AXL (Homo sapiens, UniProt P30530); test: KINOMEscan; type: binding; details: 1 μM
BRSK1 = target: T3, BRSK1 (Homo sapiens, UniProt Q8TDC3); test: KINOMEscan; type: binding; details: 1 μM
T3 construct: purchased Eurofins DiscoverX Corporation (KINOMEscan)

BUB1 = target: T4, BUB1 (Homo sapiens, UniProt O43683); test: KINOMEscan; type: binding; details: 1 μM
T4 construct: purchased Eurofins DiscoverX Corporation (KINOMEscan)

CAMK1B = target: T5, CAMK1B (Homo sapiens, UniProt Q6P2M8); test: KINOMEscan; type: binding; details: 1 μM
T5 construct: purchased Eurofins DiscoverX Corporation (KINOMEscan)

CDKL3 = CDKL3 (Homo sapiens, UniProt Q8IVW4); test: KINOMEscan; type: binding; details: 1 μM
CHEK2 = CHEK2 (Homo sapiens, UniProt O96017); test: KINOMEscan; type: binding; details: 1 μM
DAPK1 = target: T6, DAPK1 (Homo sapiens, UniProt P53355); test: KINOMEscan; type: binding; details: 1 μM
T6 construct: purchased Eurofins DiscoverX Corporation

DRAK1 = target: T7, DRAK1 (Homo sapiens, UniProt Q9UEE5); test: KINOMEscan; type: binding; details: 1 μM
T7 construct: purchased Eurofins DiscoverX Corporation

EPHA2 = EPHA2 (Homo sapiens, UniProt P29317); test: KINOMEscan; type: binding; details: 1 μM
EPHB1 = EPHB1 (Homo sapiens, UniProt P54762); test: KINOMEscan; type: binding; details: 1 μM
EPHB3 = EPHB3 (Homo sapiens, UniProt P54753); test: KINOMEscan; type: binding; details: 1 μM
GRK4 = target: T8, GRK4 (Homo sapiens, UniProt P32298); test: KINOMEscan; type: binding; details: 1 μM
T8 construct: purchased Eurofins DiscoverX Corporation

INSR = target: T9, INSR (Homo sapiens, UniProt P06213); test: KINOMEscan; type: binding; details: 1 μM
T9 construct: purchased Eurofins DiscoverX (KINOMEscan)

MAP4K5 = target: T10, MAP4K5 (Homo sapiens, UniProt Q9Y4K4); test: KINOMEscan; type: binding; details: 1 μM
T10 construct: purchased Eurofins DiscoverX Corporation

MLK1 = target: T11, MLK1 (Homo sapiens, UniProt P80192); test: KINOMEscan; type: binding; details: 1 μM
T11 construct: purchased Eurofins DiscoverX Corporation

MST3 = target: T12, MST3 (Homo sapiens, UniProt Q9Y6E0); test: KINOMEscan; type: binding; details: 1 μM
T12 construct: purchased Eurofins DiscoverX Corporation

MYO3B = target: T13, MYO3B (Homo sapiens, UniProt Q8WXR4); test: KINOMEscan; type: binding; details: 1 μM
T13 construct: purchased Eurofins DiscoverX Corporation

NEK3 = target: T14, NEK3 (Homo sapiens, UniProt P51956); test: KINOMEscan; type: binding; details: 1 μM
T14 construct: purchased Eurofins DiscoverX Corporation

NIK = NIK (Homo sapiens, UniProt Q99558); test: KINOMEscan; type: binding; details: 1 μM
p38-delta = p38-delta (Homo sapiens, UniProt O15264); test: KINOMEscan; type: binding; details: 1 μM
PIK3CA(H1047L) = PIK3CA(H1047L) (Homo sapiens, UniProt P42336, H1047L); test: KINOMEscan; type: binding; details: 1 μM
PIK3CA(H1047Y) = PIK3CA(H1047Y) (Homo sapiens, UniProt P42336, H1047Y); test: KINOMEscan; type: binding; details: 1 μM
PIK3CA(I800L) = PIK3CA(I800L) (Homo sapiens, UniProt P42336, I800L); test: KINOMEscan; type: binding; details: 1 μM
PLK4 = PLK4 (Homo sapiens, UniProt O00444); test: KINOMEscan; type: binding; details: 1 μM
PRKD1 = PRKD1 (Homo sapiens, UniProt Q15139); test: KINOMEscan; type: binding; details: 1 μM
PRKR = PRKR (Homo sapiens, UniProt P19525); test: KINOMEscan; type: binding; details: 1 μM
RAF1 = RAF1 (Homo sapiens, UniProt P04049); test: KINOMEscan; type: binding; details: 1 μM
ROCK2 = ROCK2 (Homo sapiens, UniProt O75116); test: KINOMEscan; type: binding; details: 1 μM
SLK = SLK (Homo sapiens, UniProt Q9H2G2); test: KINOMEscan; type: binding; details: 1 μM
SNARK = SNARK (Homo sapiens, UniProt Q9H093); test: KINOMEscan; type: binding; details: 1 μM
TESK1 = target: T15, TESK1 (Homo sapiens, UniProt Q15569); test: KINOMEscan; type: binding; details: 1 μM
T15 construct: purchased Eurofins DiscoverX Corporation

TGFBR1 = target: T16, TGFBR1 (Homo sapiens, UniProt P36897); test: KINOMEscan; type: binding; details: 1 μM
T16 construct: purchased Eurofins DiscoverX Corporation

TTK = TTK (Homo sapiens, UniProt P33981); test: KINOMEscan; type: binding; details: 1 μM
[3] = target: TYK2(JH1domain-catalytic) (Homo sapiens, UniProt P29597); test: KINOMEscan; type: binding; details: 1 μM
TYRO3 = TYRO3 (Homo sapiens, UniProt Q06418); test: KINOMEscan; type: binding; details: 1 μM
VRK2 = VRK2 (Homo sapiens, UniProt Q86Y07); test: KINOMEscan; type: binding; details: 1 μM
YANK3 = YANK3 (Homo sapiens, UniProt Q86UX6); test: KINOMEscan; type: binding; details: 1 μM
YANK3, sequence (Q86UX6 whole entry): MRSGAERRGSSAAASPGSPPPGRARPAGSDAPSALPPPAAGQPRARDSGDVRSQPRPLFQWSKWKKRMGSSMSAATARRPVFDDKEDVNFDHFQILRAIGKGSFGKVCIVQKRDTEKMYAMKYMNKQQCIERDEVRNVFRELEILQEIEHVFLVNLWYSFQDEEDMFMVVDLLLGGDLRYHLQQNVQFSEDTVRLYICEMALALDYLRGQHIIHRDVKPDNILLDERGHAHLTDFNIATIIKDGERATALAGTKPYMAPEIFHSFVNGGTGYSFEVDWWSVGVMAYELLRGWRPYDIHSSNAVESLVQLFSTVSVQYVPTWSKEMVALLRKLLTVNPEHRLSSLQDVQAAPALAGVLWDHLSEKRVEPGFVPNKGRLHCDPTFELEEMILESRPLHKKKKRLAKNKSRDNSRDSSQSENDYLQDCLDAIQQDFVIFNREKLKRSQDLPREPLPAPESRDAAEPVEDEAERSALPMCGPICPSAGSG

PLK4, sequence (O00444 whole entry): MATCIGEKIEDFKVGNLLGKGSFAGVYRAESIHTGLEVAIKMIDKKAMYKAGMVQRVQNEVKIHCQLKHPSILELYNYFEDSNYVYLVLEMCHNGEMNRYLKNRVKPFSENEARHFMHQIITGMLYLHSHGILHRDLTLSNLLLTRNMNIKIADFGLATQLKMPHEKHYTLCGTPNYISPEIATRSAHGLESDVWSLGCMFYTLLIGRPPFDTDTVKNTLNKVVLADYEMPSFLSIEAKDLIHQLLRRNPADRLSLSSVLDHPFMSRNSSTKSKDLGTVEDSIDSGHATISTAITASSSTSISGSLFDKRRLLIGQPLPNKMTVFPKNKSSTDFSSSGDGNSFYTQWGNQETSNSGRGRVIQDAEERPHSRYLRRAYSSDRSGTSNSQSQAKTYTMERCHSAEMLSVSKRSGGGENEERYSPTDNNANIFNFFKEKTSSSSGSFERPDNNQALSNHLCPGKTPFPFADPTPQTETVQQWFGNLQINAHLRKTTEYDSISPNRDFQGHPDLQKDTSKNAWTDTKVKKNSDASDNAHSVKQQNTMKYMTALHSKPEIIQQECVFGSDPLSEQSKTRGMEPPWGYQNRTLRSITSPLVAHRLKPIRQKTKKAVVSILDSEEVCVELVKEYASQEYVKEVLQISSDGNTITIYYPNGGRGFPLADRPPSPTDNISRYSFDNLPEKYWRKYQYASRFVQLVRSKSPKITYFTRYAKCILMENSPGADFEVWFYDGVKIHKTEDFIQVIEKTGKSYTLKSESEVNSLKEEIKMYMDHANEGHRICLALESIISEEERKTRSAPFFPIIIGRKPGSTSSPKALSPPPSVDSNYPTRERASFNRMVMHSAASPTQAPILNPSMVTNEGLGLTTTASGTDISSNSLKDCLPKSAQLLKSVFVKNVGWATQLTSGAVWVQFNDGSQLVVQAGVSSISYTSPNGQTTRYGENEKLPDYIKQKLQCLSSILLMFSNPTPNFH
T16 sequence (P36897 34-503): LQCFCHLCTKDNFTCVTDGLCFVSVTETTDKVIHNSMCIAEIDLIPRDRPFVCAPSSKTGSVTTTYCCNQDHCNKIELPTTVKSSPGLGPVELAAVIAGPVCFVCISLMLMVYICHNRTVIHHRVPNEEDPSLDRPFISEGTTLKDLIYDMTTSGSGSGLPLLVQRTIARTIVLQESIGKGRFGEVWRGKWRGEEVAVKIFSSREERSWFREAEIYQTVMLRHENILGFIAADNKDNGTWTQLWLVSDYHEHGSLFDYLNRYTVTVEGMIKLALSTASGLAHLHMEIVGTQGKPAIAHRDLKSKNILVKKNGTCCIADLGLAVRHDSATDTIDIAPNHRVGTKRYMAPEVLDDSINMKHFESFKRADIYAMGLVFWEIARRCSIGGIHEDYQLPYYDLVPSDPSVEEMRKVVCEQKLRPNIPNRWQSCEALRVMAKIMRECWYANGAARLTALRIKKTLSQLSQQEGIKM
PRKD1, sequence (Q15139 whole entry): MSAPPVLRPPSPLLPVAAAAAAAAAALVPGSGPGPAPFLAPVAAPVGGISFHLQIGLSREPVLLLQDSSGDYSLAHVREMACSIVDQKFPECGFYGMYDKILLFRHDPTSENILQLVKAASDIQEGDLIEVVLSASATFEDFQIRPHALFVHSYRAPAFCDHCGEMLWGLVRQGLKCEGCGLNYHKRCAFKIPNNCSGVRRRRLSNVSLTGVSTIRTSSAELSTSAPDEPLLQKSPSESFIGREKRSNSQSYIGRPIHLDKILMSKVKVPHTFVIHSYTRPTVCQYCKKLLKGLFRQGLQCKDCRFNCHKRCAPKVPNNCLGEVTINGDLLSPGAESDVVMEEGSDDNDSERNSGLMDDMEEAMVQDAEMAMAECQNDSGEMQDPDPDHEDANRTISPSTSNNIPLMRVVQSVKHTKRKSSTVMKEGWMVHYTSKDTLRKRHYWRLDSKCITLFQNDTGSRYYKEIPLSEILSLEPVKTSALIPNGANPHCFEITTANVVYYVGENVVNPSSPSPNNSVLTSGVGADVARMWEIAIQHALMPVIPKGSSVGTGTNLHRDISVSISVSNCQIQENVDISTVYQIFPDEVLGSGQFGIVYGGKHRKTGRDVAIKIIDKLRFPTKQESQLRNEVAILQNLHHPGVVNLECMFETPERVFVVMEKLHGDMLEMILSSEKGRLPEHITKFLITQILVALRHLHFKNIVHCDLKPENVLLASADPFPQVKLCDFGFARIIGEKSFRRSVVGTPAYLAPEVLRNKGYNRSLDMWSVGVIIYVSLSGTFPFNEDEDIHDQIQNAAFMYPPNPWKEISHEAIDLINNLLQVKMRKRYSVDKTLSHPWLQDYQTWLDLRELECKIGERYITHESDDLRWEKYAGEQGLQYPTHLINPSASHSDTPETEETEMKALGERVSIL
T7 sequence (Q9UEE5 whole entry): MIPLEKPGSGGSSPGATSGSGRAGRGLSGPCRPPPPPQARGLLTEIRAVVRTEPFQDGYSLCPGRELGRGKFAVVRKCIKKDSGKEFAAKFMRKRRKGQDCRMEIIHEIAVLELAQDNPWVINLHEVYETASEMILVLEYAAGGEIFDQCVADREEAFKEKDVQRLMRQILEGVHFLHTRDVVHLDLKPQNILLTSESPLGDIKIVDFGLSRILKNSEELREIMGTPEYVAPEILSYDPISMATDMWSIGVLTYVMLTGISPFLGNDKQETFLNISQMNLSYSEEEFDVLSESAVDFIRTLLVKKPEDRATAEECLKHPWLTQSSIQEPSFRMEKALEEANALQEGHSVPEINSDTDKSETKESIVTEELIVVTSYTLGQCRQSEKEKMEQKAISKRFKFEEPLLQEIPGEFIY
EPHB1, sequence (P54762 18-984): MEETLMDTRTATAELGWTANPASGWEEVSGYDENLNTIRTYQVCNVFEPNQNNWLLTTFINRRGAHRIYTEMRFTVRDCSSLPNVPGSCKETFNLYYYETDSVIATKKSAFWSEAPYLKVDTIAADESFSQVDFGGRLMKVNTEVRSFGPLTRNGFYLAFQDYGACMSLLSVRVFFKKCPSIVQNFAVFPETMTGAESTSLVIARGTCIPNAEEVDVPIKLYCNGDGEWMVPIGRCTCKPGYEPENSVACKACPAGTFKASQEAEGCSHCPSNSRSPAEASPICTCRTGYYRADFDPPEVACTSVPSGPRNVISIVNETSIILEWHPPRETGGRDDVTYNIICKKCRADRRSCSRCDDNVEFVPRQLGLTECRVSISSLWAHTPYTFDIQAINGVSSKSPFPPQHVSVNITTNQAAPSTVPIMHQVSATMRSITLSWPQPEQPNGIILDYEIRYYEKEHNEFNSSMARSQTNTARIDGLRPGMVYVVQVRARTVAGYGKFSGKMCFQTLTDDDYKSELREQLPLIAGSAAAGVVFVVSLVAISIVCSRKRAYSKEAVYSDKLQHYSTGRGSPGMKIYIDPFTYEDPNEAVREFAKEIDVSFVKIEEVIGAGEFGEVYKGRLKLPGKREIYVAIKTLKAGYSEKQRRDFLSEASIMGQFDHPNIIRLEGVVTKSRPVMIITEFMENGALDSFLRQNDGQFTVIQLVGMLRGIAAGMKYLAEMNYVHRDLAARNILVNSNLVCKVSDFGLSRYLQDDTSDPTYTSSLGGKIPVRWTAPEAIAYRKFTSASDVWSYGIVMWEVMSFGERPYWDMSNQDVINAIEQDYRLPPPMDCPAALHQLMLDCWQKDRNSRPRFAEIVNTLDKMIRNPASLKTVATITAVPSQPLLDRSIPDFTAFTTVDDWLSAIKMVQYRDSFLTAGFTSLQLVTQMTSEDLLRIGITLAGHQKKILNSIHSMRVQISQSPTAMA
p38-delta, sequence (O15264 whole entry): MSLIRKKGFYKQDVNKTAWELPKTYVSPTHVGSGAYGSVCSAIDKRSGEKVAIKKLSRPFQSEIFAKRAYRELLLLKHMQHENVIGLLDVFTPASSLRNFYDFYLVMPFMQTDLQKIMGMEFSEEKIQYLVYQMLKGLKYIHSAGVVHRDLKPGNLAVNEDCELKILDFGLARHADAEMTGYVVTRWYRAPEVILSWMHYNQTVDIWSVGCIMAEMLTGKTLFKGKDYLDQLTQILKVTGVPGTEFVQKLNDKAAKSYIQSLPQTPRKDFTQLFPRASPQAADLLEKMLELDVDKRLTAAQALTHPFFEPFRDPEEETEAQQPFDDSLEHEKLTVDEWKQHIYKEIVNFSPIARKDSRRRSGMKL
TYK2(JH1domain-catalytic), sequence (P29597 897-1176 limits assumed): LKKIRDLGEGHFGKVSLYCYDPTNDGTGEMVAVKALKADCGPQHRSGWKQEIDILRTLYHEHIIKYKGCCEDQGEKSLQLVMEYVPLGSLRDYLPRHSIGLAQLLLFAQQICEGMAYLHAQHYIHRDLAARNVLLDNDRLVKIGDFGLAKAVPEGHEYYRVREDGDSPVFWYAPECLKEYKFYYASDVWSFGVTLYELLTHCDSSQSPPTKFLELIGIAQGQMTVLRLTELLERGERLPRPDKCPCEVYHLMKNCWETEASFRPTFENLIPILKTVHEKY

Structure (SMILES): CSc1nc(-c2cccc(NC(=O)c3cccc4c3NC(=O)c3ccccc3N4)c2)c(-c2ccnc(NC(C)=O)c2)[nH]1 [Compound 2]
- activity ([1]; LR, [Inhibitor] 1.3e-5 nM, read-out: percent inhibition): 93.5% and 92.2% and 100%
- activity ([1]; LR, [Inhibitor] 3.18e-5 nM, read-out: percent inhibition): 90.3% (2×) and 95.9%
- activity ([1]; LR, [Inhibitor] 7.78e-5 nM, read-out: percent inhibition): 71% and 67.2% and 70.8%
- activity at 190.4 fM ([1]; LR, [Inhibitor] 0.000190441 nM, read-out: percent inhibition): 39.1%
- activity at 466 fM ([1]; LR, [Inhibitor] 0.000465979 nM, read-out: percent inhibition): 22.7%
- activity at 1.14 pM ([1]; LR, [Inhibitor] 0.00114018 nM, read-out: percent inhibition): 13.5%
- activity at 2.79 pM ([1]; LR, [Inhibitor] 0.00278983 nM, read-out: percent inhibition): 8.55%
- activity at 6.826 pM ([1]; LR, [Inhibitor] 0.00682626 nM, read-out: percent inhibition): 4.28%
- activity at 16.7 pM ([1]; LR, [Inhibitor] 0.0167028 nM, read-out: percent inhibition): 1.88%
- IC50 ([1]; enzyme 0.1 nM, ATP 100 µM, read-out: Biochemical EGFR IC50, LR): 1.5 ± 0.1 nM

Structure (SMILES): C=CC(=O)Nc1ccc(OC)c(Nc2cc(-c3[nH]c(CC)nc3-c3cccc(NC(=O)c4cccc5c4NC(=O)c4ccccc4N5)c3)ccn2)c1 [Compound 4]
- POC [2]: 37% of control
- POC (AXL): 98% of control
- POC (BRSK1): 100% of control
- POC (BUB1): 100% of control
- POC (CAMK1B): 94% of control
- POC (CDKL3): 100% of control
- POC (CHEK2): 87% of control
- POC (DAPK1): 86% of control
- POC (DRAK1): 84% of control
- POC (EPHA2): 100% of control
- POC (EPHB1): 92% of control
- POC (EPHB3): 100% of control
- POC (GRK4): 100% of control
- POC (INSR): 97% of control
- POC (MAP4K5): 2.5% of control
- POC (MLK1): 86% of control
- POC (MST3): 73% of control
- POC (MYO3B): 31% of control
- POC (NEK3): 100% of control
- POC (NIK): 100% of control
- POC (p38-delta): 100% of control
- POC (PIK3CA(H1047L)): 100% of control
- POC (PIK3CA(H1047Y)): 66% of control
- POC (PIK3CA(I800L)): 100% of control
- POC (PLK4): 71% of control
- POC (PRKD1): 42% of control
- POC (PRKR): 87% of control
- POC (RAF1): 73% of control
- POC (ROCK2): 94% of control
- POC (SLK): 100% of control
- POC (SNARK): 100% of control
- POC (TESK1): 94% of control
- POC (TGFBR1): 75% of control
- POC (TTK): 72% of control
- POC [3]: 91% of control
- POC (TYRO3): 32% of control
- POC (VRK2): 100% of control
- POC (YANK3): 96% of control

Source: PMC10879502, “Linking ATP and allosteric sites to achieve superadditive binding with bivalent EGFR kinase inhibitors” (Communications Chemistry, 2024)
